From patent publication US5385931A, “Sulfonamides derived from benzocyclic or benzoheterocyclic acids, their preparation and application in therapeutics” (Pierre Fabre Medicament, priority 1989, dated 1995) come the findings set out here.

The structures appear in SMILES notation. pIC50: −log10 of the molar value.

Series [1] concerns blood platelet aggregation induced by U.46619. As to the kind of experiment: In vitro rabbit platelet aggregation induced by U.46619. The settings on record: Oryctolagus cuniculus; rabbit platelet-rich plasma; U.46619 1.05 to 2.44 micromoles; pre-incubated 1 min at 37° C., pH 7.4. It is filed as cell-based, New Zealand rabbits. The method, then: (§1) Blood is taken from white male New Zealand rabbits which have not received any treatment capable of disrupting the platelet functions.
(§2) After having allowed the first drops to flow freely, the blood is collected in plastic tubes containing 3.8% (wt/v) trisodium citrate 5.5 H2 O, the citrate/blood ratio being 1 volume of citrate per 9 volumes of blood.
(§3) The blood platelet aggregation study is carried out starting from plasmas rich in platelets obtained by centrifuging the above blood samples at low speed. It is measured with the aid of a Mustard aggregometer at a wavelength of 609 nm with a stirring speed of 1,100 revolutions/min.
(§4) The products to be studied are dissolved in polyethylene glycol 300 and pre-incubated for 1 min at 37° C. under a volume of 10 microliters,in a mixture of 300 microliters of plasma rich in platelets and 90 microliters of Tyrode's solution without calcium, pH=7.4. (Corresponding controls are produced by pre-incubating the vehicle on its own instead of solutions of products to be studied).
(§5) The blood platelet aggregation is initiated by the addition either of U.46619 (final concentrations: 1.05 to 2.44 micromoles) or of arachidonic acid (final concentrations: 50 to 100 micromoles).
(§6) Starting from the parameter of the maximum percentage aggregation, the anti-aggregant activity of a product is calculated using the formula: [formula]
One curve: anti-aggregant activity=f (final concentration) is plotted for each product and the 50% inhibitory concentration determined from the graph.
In the case of aggregation with U.46619, the IC50 are given in Table I for compounds 1, 2, 3, 7 and 11 by way of non-limiting example: […]

Series [2] concerns blood platelet aggregation induced by arachidonic acid. The experiment in a line: In vitro rabbit platelet aggregation induced by arachidonic acid. As to conditions: arachidonic acid 50 to 100 micromoles. It is filed as cell-based, New Zealand rabbits. The method, then:
as §1, §2, §3, §4, §5, §6
The percentage inhibition of the aggregation with arachidonic acid is given in Table II for compounds 2 and 3 by way of non-limiting examples: […]

For series [3], the system named is platelet aggregation induced by U.46619. As to the kind of experiment: Ex vivo inhibition of U.46619-induced platelet aggregation after oral administration in rabbits. Details: species or system New Zealand rabbits. The settings on record: t=+90 min relative to control curve at t=0. The method, then:
b) Ex vivo action: inhibition of anti-aggregant effects using U.46619 in rabbits.
Because of their powerful activity in vitro, the anti-aggregant effects ex vivo were studied in rabbits. The substances of general formula I, which are the subject of the present invention, are administered orally as a 1% suspension in carboxymethylcellulose to natural male New Zealand rabbits weighing 2.5 to 3 kg after going without nourishment for about 18 h. Blood samples were taken by cardiac puncture at time 0 and after 90 min. The aggregant U.46619 was used under the same conditions as above and the measurement of the aggregation was carried out using the same technique.
The results are expressed in Table III in terms of percentage inhibition of the maximum amplitude of the aggregation curve at t=+90 min relative to the control curve at t=0 and are given for compounds 2 and 3 by way of non-limiting example: […]

In the next series the test system is conventional mice. As to the kind of experiment: Toxicology, intraperitoneal, mice. It is filed as in vivo. As to conditions: 500 mg per kilo intraperitoneally. The method, then: The chemical compounds described above were subjected to toxicity checks. This study was carried out on conventional mice weighing from 20 to 22 g. The compounds of general formula I were administered intraperitoneally.

The next series can be described thus: Solubility in DMSO. It is filed as physicochemical.

Turning to `O=C(O)C1Cc2cc(C(O)CNS(=O)(=O)c3ccc(Cl)cc3)ccc2O1` (stereo not drawn) [Compound 3, 5-(2-parachlorobenzenesulphonamido-1-hydroxyethyl)-2,3-dihydro-2-benzofurancarboxylic acid], the negative-log IC50 (pIC50) (as a rule, the negative decadic logarithm of the IC50, by convention in mol/L) in series [1] was 5.30. Further, in series [2] (Oryctolagus cuniculus, Platelet, final concentration of compound 10^-4 M), the inhibition (commonly the drop in the measured response relative to a control, in per cent) at 100 µM was -86%. In addition, the inhibition at 10 µM in series [2] (Oryctolagus cuniculus, Platelet, final concentration of compound 10^-5 M) is -7%. Also, the “% inhibition of platelet aggregation” value in series [2] (final concentration of compound 5.10^-5 M) is -78%. In series [3] (5 mg/kg orally), the “% inhibition of aggregation” value is listed as -43%. Besides, the “% inhibition of aggregation” value in series [3] (10 mg/kg orally) was -74%. In the series with conventional mice, the fatality entry was “not a single fatality” and the toxicity result is on record as “atoxic”. Besides, the “soluble in DMSO to give a solution of” value in “Solubility in DMSO” stood at 10%.
